Reference: PubChem BioAssay (NCI)
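The concentration for 50% growth inhibition is given as GI50. TGI denotes the concentration required for complete inhibition of growth.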

Legend:
Test in all cases: NCI tumour cell line growth inhibition, 384-well format
OVCAR-3 ovarian = system: OVCAR-3 ovarian
CCRF-CEM leukemia = system: CCRF-CEM leukemia
SW-620 colon = system: SW-620 colon
HL-60(TB) leukemia = system: HL-60(TB) leukemia
COLO 205 colon = system: COLO 205 colon
LOX IMVI melanoma = system: LOX IMVI melanoma
RPMI-8226 leukemia = system: RPMI-8226 leukemia
NCI-H226 lung = system: NCI-H226 lung
SK-MEL-2 melanoma = system: SK-MEL-2 melanoma
MOLT-4 leukemia = system: MOLT-4 leukemia
ACHN renal = system: ACHN renal
T-47D breast = system: T-47D breast
M14 melanoma = system: M14 melanoma
SF-539 CNS = system: SF-539 CNS
HOP-62 NSCLC = system: HOP-62 NSCLC
NCI-H322M lung = system: NCI-H322M lung
NCI-H23 lung = system: NCI-H23 lung
MDA-MB-231 breast = system: MDA-MB-231 breast
MCF7 breast = system: MCF7 breast
UO-31 renal = system: UO-31 renal
NCI-H522 lung = system: NCI-H522 lung
SK-MEL-5 melanoma = system: SK-MEL-5 melanoma
SK-MEL-28 melanoma = system: SK-MEL-28 melanoma
HOP-92 NSCLC = system: HOP-92 NSCLC
SNB-75 CNS = system: SNB-75 CNS
MALME-3M melanoma = system: MALME-3M melanoma
HCC-2998 colon = system: HCC-2998 colon
KM12 colon = system: KM12 colon
OVCAR-4 ovarian = system: OVCAR-4 ovarian
DU-145 prostate = system: DU-145 prostate
SR leukemia = system: SR leukemia
BT-549 breast = system: BT-549 breast
HCT-15 colon = system: HCT-15 colon
OVCAR-5 ovarian = system: OVCAR-5 ovarian
CAKI-1 renal = system: CAKI-1 renal
UACC-257 melanoma = system: UACC-257 melanoma
K-562 leukemia = system: K-562 leukemia
A498 renal = system: A498 renal
MDA-MB-468 breast = system: MDA-MB-468 breast
SF-268 CNS = system: SF-268 CNS
EKVX NSCLC = system: EKVX NSCLC
OVCAR-8 ovarian = system: OVCAR-8 ovarian
786-0 renal = system: 786-0 renal
NCI-H460 NSCLC = system: NCI-H460 NSCLC
MDA-MB-435 melanoma = system: MDA-MB-435 melanoma
IGROV1 ovarian = system: IGROV1 ovarian
HT29 colon = system: HT29 colon
TK-10 renal = system: TK-10 renal
SNB-19 CNS = system: SNB-19 CNS
UACC-62 melanoma = system: UACC-62 melanoma
RXF 393 renal = system: RXF 393 renal
PC-3 prostate = system: PC-3 prostate
A549 NSCLC = system: A549 NSCLC
U251 glioblastoma = system: U251 glioblastoma
SK-OV-3 ovarian = system: SK-OV-3 ovarian
SN12C renal = system: SN12C renal
NCI/ADR-RES ovarian = system: NCI/ADR-RES ovarian
HCT-116 colon = system: HCT-116 colon
SF-295 CNS = system: SF-295 CNS
HS 578T breast = system: HS 578T breast

## Cc1nn(C)c(COc2ccc(N3CCN(S(=O)(=O)N(C)C)CC3)cc2)c1-c1cccc2c(CCCOc3cccc4ccccc34)c(C(=O)O)n(CCN3CCOCC3)c12
OVCAR-3 ovarian
  GI50: 2.32 µM
  TGI: 5.26 µM
CCRF-CEM leukemia
  GI50: 2.41 µM
  TGI: 4.78 µM
SW-620 colon
  GI50: 3.46 µM
  TGI: 10.6 µM
HL-60(TB) leukemia
  GI50: 2.12 µM
  TGI: 3.58 µM
COLO 205 colon
  GI50: 4.33 µM
  TGI: 13.3 µM
LOX IMVI melanoma
  GI50: 5.6 µM
  TGI: 13.5 µM
RPMI-8226 leukemia
  GI50: 1.76 µM
  TGI: 3.16 µM
NCI-H226 lung
  GI50: 3.65 µM
  TGI: 10.3 µM
SK-MEL-2 melanoma
  GI50: 2.14 µM
  TGI: 3.92 µM
MOLT-4 leukemia
  GI50: 2.02 µM
  TGI: 3.66 µM
ACHN renal
  GI50: 6.55 µM
  TGI: 17.6 µM
T-47D breast
  GI50: 3.6 µM
  TGI: 10.8 µM
M14 melanoma
  GI50: 4.13 µM
  TGI: 9.35 µM
SF-539 CNS
  GI50: 3.57 µM
  TGI: 9.98 µM
HOP-62 NSCLC
  GI50: 4.22 µM
  TGI: 11.3 µM
NCI-H322M lung
  GI50: 6.07 µM
  TGI: 14.6 µM
NCI-H23 lung
  GI50: 3.54 µM
  TGI: 9.43 µM
MDA-MB-231 breast
  GI50: 4.49 µM
  TGI: 13.3 µM
MCF7 breast
  GI50: 3.06 µM
  TGI: 8.69 µM
UO-31 renal
  GI50: 9.73 µM
  TGI: 21.5 µM
NCI-H522 lung
  GI50: 2.64 µM
  TGI: 5.42 µM
SK-MEL-5 melanoma
  GI50: 2.92 µM
  TGI: 7.26 µM
SK-MEL-28 melanoma
  GI50: 3.07 µM
  TGI: 7.47 µM
HOP-92 NSCLC
  GI50: 3.32 µM
  TGI: 8.76 µM
SNB-75 CNS
  GI50: 3.52 µM
  TGI: 8.36 µM
MALME-3M melanoma
  GI50: 3.73 µM
  TGI: 10.5 µM
HCC-2998 colon
  GI50: 3.09 µM
  TGI: 7.88 µM
KM12 colon
  GI50: 4.51 µM
  TGI: 12.2 µM
OVCAR-4 ovarian
  GI50: 3.43 µM
  TGI: 9.25 µM
DU-145 prostate
  GI50: 6.23 µM
  TGI: 16.2 µM
SR leukemia
  GI50: 1.57 µM
  TGI: 2.93 µM
BT-549 breast
  GI50: 3.49 µM
  TGI: 8.64 µM
HCT-15 colon
  GI50: 12.1 µM
  TGI: 25.5 µM
OVCAR-5 ovarian
  GI50: 5.75 µM
  TGI: 16.2 µM
CAKI-1 renal
  GI50: 6.88 µM
  TGI: 17.6 µM
UACC-257 melanoma
  GI50: 2.99 µM
  TGI: 7.34 µM
K-562 leukemia
  GI50: 4.21 µM
  TGI: 13.8 µM
A498 renal
  GI50: 3.63 µM
  TGI: 11.1 µM
MDA-MB-468 breast
  GI50: 2.3 µM
  TGI: 4.43 µM
SF-268 CNS
  GI50: 5.48 µM
  TGI: 15.2 µM
EKVX NSCLC
  GI50: 4.87 µM
  TGI: 16.7 µM
OVCAR-8 ovarian
  GI50: 3.73 µM
  TGI: 12.9 µM
786-0 renal
  GI50: 5.67 µM
  TGI: 13.8 µM
NCI-H460 NSCLC
  GI50: 5.22 µM
  TGI: 14.9 µM
MDA-MB-435 melanoma
  GI50: 4.32 µM
  TGI: 14.6 µM
IGROV1 ovarian
  GI50: 3.11 µM
  TGI: 8.58 µM
HT29 colon
  GI50: 2.72 µM
  TGI: 7.13 µM
TK-10 renal
  GI50: 4.94 µM
  TGI: 14.1 µM
SNB-19 CNS
  GI50: 3.77 µM
  TGI: 12.8 µM
UACC-62 melanoma
  GI50: 2.67 µM
  TGI: 5.65 µM
RXF 393 renal
  GI50: 1.79 µM
  TGI: 5.04 µM
PC-3 prostate
  GI50: 3.72 µM
  TGI: 10.9 µM
A549 NSCLC
  GI50: 9.44 µM
  TGI: 23.3 µM
U251 glioblastoma
  GI50: 3.67 µM
  TGI: 11.8 µM
SK-OV-3 ovarian
  GI50: 5.61 µM
  TGI: 13.6 µM
SN12C renal
  GI50: 3.55 µM
  TGI: 12.7 µM
NCI/ADR-RES ovarian
  GI50: 32.8 µM
  TGI: > 92.7 µM
HCT-116 colon
  GI50: 2.87 µM
  TGI: 8.51 µM
SF-295 CNS
  GI50: 2.94 µM
  TGI: 7.54 µM

## NC(=O)c1ccc(-c2nc(-c3ccc4c(c3)OCO4)c(-c3ccccn3)[nH]2)cc1
OVCAR-3 ovarian
  GI50: 21.6 µM
  TGI: 47.1 µM
CCRF-CEM leukemia
  GI50: 18.1 µM
  TGI: 38.7 µM
SW-620 colon
  GI50: 60.6 µM
  TGI: > 100 µM
HL-60(TB) leukemia
  GI50: 17.8 µM
  TGI: 31.7 µM
COLO 205 colon
  GI50: 21.7 µM
  TGI: 39.3 µM
LOX IMVI melanoma
  GI50: 14.2 µM
  TGI: 29.4 µM
RPMI-8226 leukemia
  GI50: 15.7 µM
  TGI: 30.4 µM
NCI-H226 lung
  GI50: 17.2 µM
  TGI: 32.7 µM
MOLT-4 leukemia
  GI50: 16.5 µM
  TGI: 30.3 µM
ACHN renal
  GI50: 44.7 µM
  TGI: > 100 µM
T-47D breast
  GI50: 20.4 µM
  TGI: 42.4 µM
M14 melanoma
  GI50: 24.4 µM
  TGI: 83.2 µM
SF-539 CNS
  GI50: 41.8 µM
  TGI: > 100 µM
HOP-62 NSCLC
  GI50: 18.5 µM
  TGI: 43 µM
NCI-H322M lung
  GI50: 27.9 µM
  TGI: 90.6 µM
NCI-H23 lung
  GI50: 22 µM
  TGI: 47.7 µM
MDA-MB-231 breast
  GI50: 22.2 µM
  TGI: 83 µM
MCF7 breast
  GI50: 20.6 µM
  TGI: 49.1 µM
UO-31 renal
  GI50: 42.6 µM
  TGI: > 100 µM
NCI-H522 lung
  GI50: 24.2 µM
  TGI: 46.1 µM
SK-MEL-5 melanoma
  GI50: 7.13 µM
  TGI: 19.5 µM
SK-MEL-28 melanoma
  GI50: 32.9 µM
  TGI: 86.5 µM
HOP-92 NSCLC
  GI50: 30.7 µM
  TGI: 95.7 µM
SNB-75 CNS
  GI50: 42.4 µM
  TGI: > 100 µM
MALME-3M melanoma
  GI50: 29.7 µM
  TGI: 52.4 µM
HCC-2998 colon
  GI50: 16.7 µM
  TGI: 36.3 µM
HS 578T breast
  GI50: 25.3 µM
  TGI: 60.1 µM
KM12 colon
  GI50: 27 µM
  TGI: 73.2 µM
OVCAR-4 ovarian
  GI50: 26.7 µM
  TGI: 71.6 µM
DU-145 prostate
  GI50: 23.7 µM
  TGI: 52.1 µM
SR leukemia
  GI50: 17.5 µM
  TGI: 32.4 µM
BT-549 breast
  GI50: 17.5 µM
  TGI: 64.3 µM
HCT-15 colon
  GI50: 18.9 µM
  TGI: 36 µM
OVCAR-5 ovarian
  GI50: 26.6 µM
  TGI: 81.9 µM
CAKI-1 renal
  GI50: 28.4 µM
  TGI: 72.9 µM
UACC-257 melanoma
  GI50: 22.4 µM
  TGI: 43 µM
K-562 leukemia
  GI50: 35.3 µM
  TGI: > 100 µM
A498 renal
  GI50: 23.4 µM
  TGI: 56.3 µM
MDA-MB-468 breast
  GI50: 17.9 µM
  TGI: 36.9 µM
SF-268 CNS
  GI50: 38 µM
  TGI: > 100 µM
EKVX NSCLC
  GI50: 14.3 µM
  TGI: 59.1 µM
OVCAR-8 ovarian
  GI50: 22.6 µM
  TGI: 52.2 µM
786-0 renal
  GI50: 28 µM
  TGI: 81.6 µM
NCI-H460 NSCLC
  GI50: 14.4 µM
  TGI: 28.1 µM
MDA-MB-435 melanoma
  GI50: 39.6 µM
  TGI: > 100 µM
IGROV1 ovarian
  GI50: 19.6 µM
  TGI: 46.1 µM
HT29 colon
  GI50: 19.9 µM
  TGI: 44.9 µM
TK-10 renal
  GI50: 24.6 µM
  TGI: 60.4 µM
SNB-19 CNS
  GI50: 40.1 µM
  TGI: > 100 µM
RXF 393 renal
  GI50: 11.9 µM
  TGI: 26.8 µM
PC-3 prostate
  GI50: 27.2 µM
  TGI: > 100 µM
A549 NSCLC
  GI50: 21.1 µM
  TGI: 57.1 µM
U251 glioblastoma
  GI50: 35.2 µM
  TGI: > 100 µM
SK-OV-3 ovarian
  GI50: 24.3 µM
  TGI: 64.9 µM
SN12C renal
  GI50: 39.1 µM
  TGI: > 100 µM
NCI/ADR-RES ovarian
  GI50: 16.4 µM
  TGI: 33.3 µM
HCT-116 colon
  GI50: 16.9 µM
  TGI: 32.2 µM
SF-295 CNS
  GI50: 20.2 µM
  TGI: 43.3 µM
